Data on one molecule can be found in ChEMBL document CHEMBL5608215, “Development of amphipathic derivatives of thymol and carvacrol as potent broad-spectrum antibacterial agents” (Eur J Med Chem, 2024).

Active and inactive are the calls of the source. The rule behind the calls is not given here.

Data set [1] has as its system Staphylococcus aureus. The data set can be described thus: Antibacterial activity against Staphylococcus aureus ATCC29213 in plasma pretreated plasma with compound for 6 hrs followed by bacterial infection into plasma. Type of data set: functional, organism-based.
Data set [2] has as its system Escherichia coli. As to the kind of experiment: Antibacterial activity against Escherichia coli ATCC25922 by CLSI based serial dilution method. The data set is classed as functional.
Data set [3] has as its system Pseudomonas aeruginosa. The data set can be described thus: Antibacterial activity against Pseudomonas aeruginosa ATCC27853 by CLSI based serial dilution method. Type of data set: functional.
Data set [4] relates to Staphylococcus aureus. As to the kind of experiment: Bactericidal activity against Staphylococcus aureus ATCC29213 incubated upto 24 hrs by time-kill assay. The data set is classed as functional, organism-based.
The subject of data set [5] is Staphylococcus aureus. As to the kind of experiment: Bactericidal activity against Staphylococcus aureus ATCC29213 assessed as log reduction in bacterial growth at 8 times MIC incubated for 24 hrs by time-kill assay. The data set is classed as functional.
In data set [6] the test system is Escherichia coli. As to the kind of experiment: Bactericidal activity against Escherichia coli ATCC25922 assessed as log reduction in bacterial growth at MIC incubated for 12 hrs by time-kill assay. The data set is classed as functional.
Data set [7] deals with Staphylococcus aureus. As to the kind of experiment: Antibacterial activity against Staphylococcus aureus ATCC29213 assessed as cell surface wrinkling at 8 times MIC by SEM analysis. The data set is classed as functional, organism-based.
The subject of data set [8] is Staphylococcus aureus. The data set can be described thus: Antibacterial activity against Staphylococcus aureus ATCC29213 assessed as cell surface disruption at 8 times MIC by SEM analysis. The data set is classed as functional, organism-based.
Data set [9] has as its system Staphylococcus aureus. As to the kind of experiment: Antibacterial activity against Staphylococcus aureus ATCC29213 assessed as cell membrane damage incubated for 8 mins by SYTOX Green uptake assay. The data set is classed as functional, organism-based.
Data set [10] deals with Staphylococcus aureus. As to the kind of experiment: Antibacterial activity against Staphylococcus aureus ATCC29213 assessed as cell membrane damage at 8 times MIC by NucGreen/EthD-III staining based analysis. Type of data set: functional, organism-based.
Data set [11] deals with Staphylococcus aureus. The data set can be described thus: Antibacterial activity against Staphylococcus aureus ATCC25923 upto 32 ug/ml incubated for 16 to 18 hrs in presence of phosphatidylglycerol. To be noted: dose <= 32.0 µg/ml, time 16-18 hrs. Type of data set: functional, organism-based.
Data set [12] can be described thus: Toxicity in KM mouse assessed as histopathological abnormality in spleen upto 40 mg/kg, ip measured for 24 hrs by H and E staining based analysis. Type of data set: organism-based. The conditions noted are these: in vivo.
Data set [13] can be described thus: Toxicity in KM mouse assessed as damage in spleen upto 40 mg/kg, ip measured for 24 hrs by H and E staining based analysis. To be noted: in vivo. The data set is classed as organism-based.
Data set [14] in a line: Toxicity in KM mouse assessed as damage in lung upto 40 mg/kg, ip measured for 24 hrs by H and E staining based analysis. To be noted: in vivo. The data set is classed as organism-based.
Data set [15] relates to Staphylococcus aureus. As to the kind of experiment: Antibacterial activity against Staphylococcus aureus ATCC29213 infected in mouse model assessed as bacterial load reduction in abscesses at 5 mg/kg, sc measured after 24 hrs relative to control. Type of data set: functional. More on the design: scale not given: the % may be the effect or the level left.
Data set [16] concerns Staphylococcus aureus. As to the kind of experiment: Antibacterial activity against Staphylococcus aureus ATCC29213 infected in mouse model assessed as bacterial load in abscesses at 10 mg/kg, sc measured after 24 hrs. Type of data set: functional.

One may read the MIC as the least concentration at which growth counts as inhibited. Turning to `CCCCCCCNC(=O)C[N+](C)(C)CCCCOc1cc(C)ccc1C(C)C.[Br-]`, the outcome in data set [1], in data set [7], in data set [8] and in [10] was Active. In addition, the results for the MIC in data set [2] and in [3] were 2 µg/mL and 8 µg/mL, respectively. The Activity result in data set [4] is “Dose-Dependent Effect”; in data set [5], above 3 log10CFU/ml; in [6] it was above 4 log10CFU/ml; in data set [9], “Dose-Dependent Effect”; in [12], “Non-Toxic”; in [13], “Non-Toxic”. The Activity entry in [14] was “Non-Toxic”; in data set [15] it was 99.27%; in [16] it was 2.46 log10CFU/g. For the same molecule, in data set [11], the result was inactive.
